Test results reported in PubChem BioAssay (NCI).
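Exposure lasted 48 hours, with cells grown in 96-well plates and compounds tested at five concentrations. TGI: total growth inhibition.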 Where a SMILES comes first, the peptide text is derived from it. The star is where a group is joined. Boc = CC(C)(C)OC(=O)*

Key:
Assay in all cases: NCI tumour cell line growth inhibition, 48 h
ACHN renal = test system: ACHN renal
DMS 273 small cell lung = test system: DMS 273 small cell lung
KM20L2 colon = test system: KM20L2 colon
LXFL 529 NSCLC = test system: LXFL 529 NSCLC
M19-MEL melanoma = test system: M19-MEL melanoma
NCI-H522 lung = test system: NCI-H522 lung
OVCAR-4 ovarian = test system: OVCAR-4 ovarian
RXF-631 renal = test system: RXF-631 renal
SNB-78 CNS = test system: SNB-78 CNS
SW-620 colon = test system: SW-620 colon
U251 CNS = test system: U251 CNS
XF 498 CNS = test system: XF 498 CNS
DLD-1 colon = test system: DLD-1 colon
DMS 114 small cell lung = test system: DMS 114 small cell lung
HL-60(TB) leukemia = test system: HL-60(TB) leukemia
HOP-18 NSCLC = test system: HOP-18 NSCLC

Row | SMILES | TGI (ACHN renal) | TGI (DMS 273 small cell lung) | TGI (KM20L2 colon) | TGI (LXFL 529 NSCLC) | TGI (M19-MEL melanoma) | TGI (NCI-H522 lung) | TGI (OVCAR-4 ovarian) | TGI (RXF-631 renal) | TGI (SNB-78 CNS) | TGI (SW-620 colon) | TGI (U251 CNS) | TGI (XF 498 CNS) | TGI (DLD-1 colon) | TGI (DMS 114 small cell lung) | TGI (HL-60(TB) leukemia) | TGI (HOP-18 NSCLC)
1 | Cc1ccc(/C=C/C(=O)C(C)(C)CN2CCCCC2)cc1 | 23.7 µM | 11.7 µM | 10.7 µM | 19.4 µM | 31.1 µM | 13.7 µM | 22.9 µM | 32.1 µM | 29.7 µM | 7.99 µM | 27.5 µM | 25.3 µM | – | – | – | –
2 | CC(C)(C)OC(=O)NC(Cc1ccc(O)cc1)C(=O)N1CCCC1C(=O)O (stereo not drawn) (Boc-Tyr-Pro-OH; configuration not given here) | > 100 µM | > 100 µM | > 100 µM | > 100 µM | > 100 µM | > 100 µM | > 100 µM | > 100 µM | > 100 µM | > 100 µM | > 100 µM | > 100 µM | > 100 µM | > 100 µM | > 100 µM | > 100 µM
3 | CC(=O)C(CN(CC(C)C)CC(C)C)C(c1ccccc1)c1c(O)c2ccccc2oc1=O (configuration not stated) | > 100 µM | – | > 100 µM | > 100 µM | > 100 µM | > 100 µM | > 100 µM | > 100 µM | – | > 100 µM | – | – | > 100 µM | > 100 µM | > 100 µM | –
4 | CC(=O)CN(Cc1cc(C)c2c(c1)c1ccccc1n2Cc1ccccc1)S(=O)(=O)c1ccc(C)cc1 | – | > 100 µM | – | > 100 µM | > 100 µM | > 100 µM | > 100 µM | > 100 µM | > 100 µM | > 100 µM | – | > 100 µM | > 100 µM | > 100 µM | > 100 µM | > 100 µM
